Test results taken from patent US9427433B2, “Methods and compositions for enhancing fertility and/or inhibiting pregnancy failure and restoring glucose tolerance” (Queen's University at Kingston, priority 2011, dated 2016).

What was measured:
NOD and NZO mice = experiment: Implantation rate and embryonic/fetal resorption after tacrolimus; type: in vivo, mouse; settings: short-term administration
Method: Fifty four NOD mice at the prediabetic and early diabetic stages were carefully selected to match the criteria of being 2 standard deviation heavier in body weight than their age-matched normoglycemic control mice and having blood glucose value of >14.9 mM/1 during the glucose tolerance test. The selected mice were 9 weeks old and were treated with 0.1 mg/kg q2d of tacrolimus (Prograf (5 mg/ml), Astellas) subcutaneously administered in 0.2 ml saline for three weeks after which animals were mated to males of the same strain (See FIG. 1). Vehicle (0.2 ml saline, s.q.) treated hyperglycemic NOD female mice were allowed two weeks in diabetes before they were mated to males of the same strain. […]
Twenty NZO and DIO/B6 female mice were maintained on a high fat diet consisted of 60% kcal fat, 20% kcal protein and 20% kcal carbohydrate, with a total energy mass of 5.24 kcal/gm (D12492, Research Diets Inc.; Cedarlane Laboratories, Burlington, Ontario, Canada) starting at 7 weeks of age and maintained on the diet for a total of 12 weeks of study period during which their weekly body weight changes and non-fasting blood glucose values were recorded. […]

[1] = system: NZO mice fed a high fat diet; experiment: Implantation rate and resorption, comparison of macrolides; type: in vivo, mouse
Method: For the comparative evaluation of other macrolide drugs to tacrolimus, mice starting at 7 weeks of age were maintained on the high fat diet for a total of 13 weeks of study period. Mice were entered into the experiments when determined to be glucose intolerant as described above. Methods of drug administration and other experimental methods were as described above.
Peri-implantation (E4.5) and post-implantation (E6.5) pregnant and/or pseudopregnant (E4.5bid and E6.5bid) mouse uteri were prepared after mating respectively with fertile and/or vasectomized males as previously described (Herington et al. Endocrinol 2009 150: 4404-4413). The morning of vaginal plug detection was considered as gestational day 0.5 (E0.5 or Gd.0.5). An average number of twenty Concanavalin A(ConA)-coated sepharose beads (average size of 0.1 mm-diameter) (Sigma-Aldrich, Burlington, Ontario, Canada) was injected into the lumen of the left uterine horn of anesthetized animals between hours 13:00 and 16:00 on day 2.5 of pseudopregnancy according to the procedure described by Herington et al. (Endocrinol, 2009 150: 4404-4413). With the use of Ketamine/Xyalzine anesthesia and cardiac puncture, all animals were sacrificed at the age of 16-18 weeks between the morning hours 09:00-11:00. Pregnant and pseudopregnant mice were sacrificed in the morning of days 4.5 and 6.5 of their respective pregnancy. Blood samples were collected from all animals and were let stand for 1 hour at room temperature before isolation of the serum. Serum samples were stored at −80° C. until they were analyzed for their steroid hormones and lipid contents by appropriate laboratory procedures such as radio-immunoassay (RIA) all of which were conducted at the Department of Clinical Chemistry (Kingston General Hospital, Kingston, Ontario, Canada). Ovaries, oviducts and uteri were carefully dissected out of carcasses and were placed in ice-cold phosphate buffered saline (PBS)-containing petri dishes. Under a dissecting microscope, uteri were carefully isolated from their attached uterine tubes, trimmed of all mesenteric fat and were immediately weighed. The numbers of corpora lutea and implantation sites (viable and resorbed) were counted, respectively, from E4.5 and E6.5 pregnant mouse ovaries and uteri. For protein and RNA extraction, virgin uteri and segments of uterine horns containing inter-implantation sites of pregnant and pseudopregnant uteri were transected and snapped frozen in liquid nitrogen.
Examination of external morphological features of uteri of pregnant mice, including counts of implantation sites and photography was performed using a computerized dissecting microscope (Leica Diagnostic Instruments, USA) and the image acquisition and analytic software (SPOT 2.2.0). Percentage of peri-implantation embryo loss was calculated as described by Bindali and Kaliwal (Ind. Health, 2002 40:191-197), using the formula: % Preimplantation loss=[Total number of corpora lutea−Total number of implantation]/Total number of corpora lutea. Immunohistochemical localization and assessment of microscopic morphological features of implantation and inter-implantation sites in normoglycemic and diabetic NOD mice were performed on methacarn (60% methanol, 30% chloroform and 10% acetic acid)-fixed specimens. […]

C=CC[C@@H]1/C=C(\C)C[C@H](C)C[C@H](OC)[C@H]2O[C@@](O)(C(=O)C(=O)N3CCCC[C@H]3C(=O)O[C@H](/C(C)=C/[C@@H]3CC[C@@H](O)[C@H](OC)C3)[C@H](C)[C@@H](O)CC1=O)[C@H](C)C[C@@H]2OC [tacrolimus]
rates of embryonic and fetal resorption (NOD and NZO mice): reduced rates of embryonic and fetal resorption
implantation rate (NOD and NZO mice; pregnancy days 4.5 and 6.5): enhanced implantation rate
fertility-enhancing effect compared with the other macrolides ([1]; NZO mice, high fat diet): greater comparative effects
embryonic and fetal absorption rate ([1]; same treatments, vs vehicle, p<0.05): significantly reduced embryonic and fetal absorption rate
implantation rate ([1]; tacrolimus 0.05 and 0.1 mg/kg, pimecrolimus 0.1 mg/kg, sirolimus 0.1 mg/kg s.c. every other day for three weeks, vs vehicle): significantly improved implantation rate (p<0.05)
